Experiments:
[1] = system: Oryza sativa, (L.) Tebonnet; assay: Rice tolerance to post-transplant applications under flooded paddy conditions (Example 187), ORYSAT (Rice, Tebonnet); conditions: for herbicidal effect rating ORYSAT / ORYSAT herbicidal rating (rice tolerance): rated three to four weeks after treatment; for ORYSAT: herbicidal effect rating 0-9, three to four weeks after treatment; on herbicidal effect rating ORYSAT: meaning of each grade not given here
[2] = system: Cyperus iria; assay: Preemergence weed control under flooded paddy conditions, CYPIR (Rice Flatsedge); assay type: in vivo; conditions: flooded paddy; for herbicidal effect rating, CYPIR / CYPIR herbicidal rating: rated three to four weeks after treatment; for CYPIR: herbicidal effect rating 0-9, three to four weeks after treatment; on herbicidal effect rating, CYPIR: meaning of each grade not given here
[3] = system: Monochoria vaginalis, Presl.; assay: Preemergence weed control under flooded paddy conditions, MOOVA (Monochoria); assay type: in vivo; conditions: flooded paddy; for herbicidal effect rating, MOOVA / MOOVA herbicidal rating: rated three to four weeks after treatment; for MOOVA: herbicidal effect rating 0-9, three to four weeks after treatment; on herbicidal effect rating, MOOVA: meaning of each grade not given here
[4] = system: Cyperus serotinus, Rottb.; assay: Preemergence weed control under flooded paddy conditions, CYPSE (Flatsedge); assay type: in vivo; conditions: for herbicidal effect rating, CYPSE / CYPSE herbicidal rating: rated three to four weeks after treatment; for CYPSE: herbicidal effect rating 0-9, three to four weeks after treatment; on herbicidal effect rating, CYPSE: meaning of each grade not given here
[5] = system: Sagittaria pygmaea, L.; assay: Preemergence weed control under flooded paddy conditions, SAGPY (Arrowhead (Pygmaea)); assay type: in vivo; conditions: flooded paddy; for herbicidal effect rating, SAGPY / SAGPY herbicidal rating: rated three to four weeks after treatment; for SAGPY: herbicidal effect rating 0-9, three to four weeks after treatment; on herbicidal effect rating, SAGPY: meaning of each grade not given here
[6] = system: Echinochloa oryzoides (Ard.) Fritsch.; assay: Preemergence weed control under flooded paddy conditions, ECHORC (Watergrass (Calif.)); assay type: in vivo; conditions: flooded paddy; for herbicidal effect rating, ECHORC / ECHORC herbicidal rating: rated three to four weeks after treatment; for ECHORC: herbicidal effect rating 0-9, three to four weeks after treatment; on herbicidal effect rating, ECHORC: meaning of each grade not given here
[7] = Rate 0.0320 kg/ha, preemergence weeds
[8] = Rate 0.0620 kg/ha, preemergence weeds
[9] = Rate 0.1250 kg/ha, preemergence weeds
[10] = Rate 0.2500 kg/ha, preemergence weeds
[11] = 0.0320 kg/ha, preemergence weeds
[12] = 0.0620 kg/ha, preemergence weeds
[13] = 0.1250 kg/ha, preemergence weeds
[14] = 0.2500 kg/ha, preemergence weeds
[15] = Rate 0.0320 kg/ha, preemergence
[16] = Rate 0.0620 kg/ha, preemergence
[17] = Rate 0.1250 kg/ha, preemergence
[18] = Rate 0.2500 kg/ha, preemergence

For COc1cccc(-c2nsc3ccc(-n4c(=O)cc(C(F)(F)F)n(C)c4=O)cc23)c1 [Example 301, 2,4(1H,3H)-Pyrimidinedione, 3-[3-(m-methoxyphenyl)-1,2-benzisothiazol-5-yl]-1-methyl-6-(trifluoromethyl)-], the “herbicidal effect rating ORYSAT” value ([1]; Rate 0.0320 kg/ha) was 1.0, the “herbicidal effect rating ORYSAT” value ([1]; Rate 0.0620 kg/ha) was 1.0 and the “herbicidal effect rating ORYSAT” value ([1]; Rate 0.1250 kg/ha) was 2.5. The “herbicidal effect rating ORYSAT” value ([1]; Rate 0.2500 kg/ha) was 3.5, the “herbicidal effect rating, CYPIR” value [2, 7] was 9.0 and the “herbicidal effect rating, CYPIR” value [2, 8] was 9.0. For the same compound, the “herbicidal effect rating, CYPIR” value [2, 9] was 9.0, the “herbicidal effect rating, CYPIR” value [2, 10] was 9.0 and the “herbicidal effect rating, MOOVA” value [3, 7] was 9.0. For the same compound, the “herbicidal effect rating, MOOVA” value [3, 8] was 9.0, the “herbicidal effect rating, MOOVA” value [3, 9] was 9.0 and the “herbicidal effect rating, MOOVA” value [3, 10] was 9.0. For the same compound, the “herbicidal effect rating, CYPSE” value [4, 7] was 9.0, the “herbicidal effect rating, CYPSE” value [4, 8] was 9.0 and the “herbicidal effect rating, CYPSE” value [4, 9] was 9.0. The “herbicidal effect rating, CYPSE” value [4, 10] was 9.0, the “herbicidal effect rating, SAGPY” value [5, 7] was 2.0 and the “herbicidal effect rating, SAGPY” value [5, 8] was 4.5. For the same compound, the “herbicidal effect rating, SAGPY” value [5, 9] was 7.0, the “herbicidal effect rating, SAGPY” value [5, 10] was 8.5 and the “herbicidal effect rating, ECHORC” value [6, 7] was 9.0. For the same compound, the “herbicidal effect rating, ECHORC” value [6, 8] was 9.0, the “herbicidal effect rating, ECHORC” value [6, 9] was 9.0 and the “herbicidal effect rating, ECHORC” value [6, 10] was 9.0.

With Cn1c(C(F)(F)F)cc(=O)n(-c2ccc3snc(C(C)(C)C(N)=O)c3c2)c1=O [Example 509, 1,2-Benzisothiazole-3-acetamide, 5-[3,6-dihydro-3-methyl-2,6-dioxo-4-(trifluoromethyl)-1(2H)-pyrimidinyl]-alpha,alpha-dimethyl-] the “ORYSAT herbicidal rating (rice tolerance)” value (“ORYSAT herbicidal rating” below) ([1]; 0.0620 kg/ha) was 0.0, the “ORYSAT herbicidal rating” value ([1]; 0.1250 kg/ha) was 3.0 and the “ORYSAT herbicidal rating” value ([1]; 0.2500 kg/ha) was 7.0. The CYPIR herbicidal rating ([2]; 0.0620 kg/ha, preemergence) was 0.0, the CYPIR herbicidal rating ([2]; 0.1250 kg/ha, preemergence) was 4.0 and the CYPIR herbicidal rating ([2]; 0.2500 kg/ha, preemergence) was 7.0. It also gave an MOOVA herbicidal rating ([3]; 0.0620 kg/ha, preemergence) of 0.0, an MOOVA herbicidal rating ([3]; 0.1250 kg/ha, preemergence) of 4.0 and an MOOVA herbicidal rating ([3]; 0.2500 kg/ha, preemergence) of 9.0. For the same compound, the CYPSE herbicidal rating ([4]; 0.0620 kg/ha, preemergence) was 0.0, the CYPSE herbicidal rating ([4]; 0.1250 kg/ha, preemergence) was 0.0 and the CYPSE herbicidal rating ([4]; 0.2500 kg/ha, preemergence) was 7.0. It also gave an SAGPY herbicidal rating ([5]; 0.0620 kg/ha, preemergence) of 0.0, an SAGPY herbicidal rating ([5]; 0.1250 kg/ha, preemergence) of 3.0 and an SAGPY herbicidal rating ([5]; 0.2500 kg/ha, preemergence) of 6.0. The ECHORC herbicidal rating ([6]; 0.0620 kg/ha, preemergence) was 0.0, the ECHORC herbicidal rating ([6]; 0.1250 kg/ha, preemergence) was 2.0 and the ECHORC herbicidal rating ([6]; 0.2500 kg/ha, preemergence) was 7.0.

For Cn1c(C(F)(F)F)cc(=O)n(-c2ccc3snc(CN(C(=O)OC(C)(C)C)S(C)(=O)=O)c3c2)c1=O [Example 304, Carbamic acid, {{5-[3,6-dihydro-3-methyl-2,6-dioxo-4-(trifluoromethyl)-1(2H)-pyrimidinyl]-1,2-benzisothiazol-3-yl}methyl}(methylsulfonyl)-, tert-butyl ester], the “herbicidal effect rating ORYSAT” value ([1]; Rate 0.0320 kg/ha) was 0.0, the “herbicidal effect rating ORYSAT” value ([1]; Rate 0.0620 kg/ha) was 2.0 and the “herbicidal effect rating ORYSAT” value ([1]; Rate 0.1250 kg/ha) was 4.0. For the same compound, the “herbicidal effect rating ORYSAT” value ([1]; Rate 0.2500 kg/ha) was 4.0, the “herbicidal effect rating, CYPIR” value [2, 7] was 0.0 and the “herbicidal effect rating, CYPIR” value [2, 8] was 4.0. For the same compound, the “herbicidal effect rating, CYPIR” value [2, 9] was 9.0, the “herbicidal effect rating, CYPIR” value [2, 10] was 9.0 and the “herbicidal effect rating, MOOVA” value [3, 7] was 0.0. For the same compound, the “herbicidal effect rating, MOOVA” value [3, 8] was 7.0, the “herbicidal effect rating, MOOVA” value [3, 9] was 7.0 and the “herbicidal effect rating, MOOVA” value [3, 10] was 9.0. The “herbicidal effect rating, CYPSE” value [4, 7] was 0.0, the “herbicidal effect rating, CYPSE” value [4, 8] was 0.0 and the “herbicidal effect rating, CYPSE” value [4, 9] was 0.0. The “herbicidal effect rating, CYPSE” value [4, 10] was 0.0, the “herbicidal effect rating, SAGPY” value [5, 7] was 0.0 and the “herbicidal effect rating, SAGPY” value [5, 8] was 0.0. For the same compound, the “herbicidal effect rating, SAGPY” value [5, 9] was 0.0, the “herbicidal effect rating, SAGPY” value [5, 10] was 0.0 and the “herbicidal effect rating, ECHORC” value [6, 7] was 0.0. The “herbicidal effect rating, ECHORC” value [6, 8] was 0.0, the “herbicidal effect rating, ECHORC” value [6, 9] was 0.0 and the “herbicidal effect rating, ECHORC” value [6, 10] was 0.0.

Compound COC(=O)COc1cc2c(cc1-c1nsc3ccc(-n4c(=O)cc(C(F)(F)F)n(C)c4=O)cc13)CCC2 [Example 434, Acetic acid, {{6-{5-[3,6-dihydro-3-methyl-2,6-dioxo-4-(trifluoromethyl)-1(2H)-pyrimidinyl]-1,2-benzisothiazol-3-yl}-5-indanyl}oxy}-, methyl ester] has an ORYSAT ([1]; 0.0320 kg/ha) of 4.0, an ORYSAT ([1]; 0.0620 kg/ha) of 6.0 and an ORYSAT ([1]; 0.1250 kg/ha) of 6.0. It also gave an ORYSAT ([1]; 0.2500 kg/ha) of 7.0, a CYPIR [2, 11] of 3.0 and a CYPIR [2, 12] of 3.0. The CYPIR [2, 13] was 7.0, the CYPIR [2, 14] was 8.0 and the MOOVA [3, 11] was 9.0. It also gave an MOOVA [3, 12] of 9.0, an MOOVA [3, 13] of 9.0 and an MOOVA [3, 14] of 9.0. It also gave a CYPSE [4, 11] of 4.0, a CYPSE [4, 13] of 4.0 and a CYPSE [4, 14] of 7.0. It also gave an SAGPY [5, 11] of 4.0, an SAGPY [5, 12] of 4.0 and an SAGPY [5, 13] of 5.0. For the same compound, the SAGPY [5, 14] was 6.0, the ECHORC [6, 11] was 6.0 and the ECHORC [6, 12] was 7.0. It also gave an ECHORC [6, 13] of 7.0 and an ECHORC [6, 14] of 9.0.

With CC(C)N(C(C)C)S(=O)(=O)NC(=O)c1nsc2ccc(-n3c(=O)cc(C(F)(F)F)n(C)c3=O)cc12 [Example 500, 1,2-Benzisothiazole-3-carboxamide, 5-[3,6-dihydro-3-methyl-2,6-dioxo-4-(trifluoromethyl)-1(2H)-pyrimidinyl)-N-(diisopropylsulfamoyl)-] the “ORYSAT herbicidal rating” value ([1]; 0.0320 kg/ha) was 2.0, the “ORYSAT herbicidal rating” value ([1]; 0.0620 kg/ha) was 2.0 and the “ORYSAT herbicidal rating” value ([1]; 0.1250 kg/ha) was 2.0. The “ORYSAT herbicidal rating” value ([1]; 0.2500 kg/ha) was 2.0, the CYPIR herbicidal rating ([2]; 0.0320 kg/ha, preemergence) was 6.0 and the CYPIR herbicidal rating ([2]; 0.0620 kg/ha, preemergence) was 6.0. For the same compound, the CYPIR herbicidal rating ([2]; 0.1250 kg/ha, preemergence) was 6.0, the CYPIR herbicidal rating ([2]; 0.2500 kg/ha, preemergence) was 9.0 and the MOOVA herbicidal rating ([3]; 0.0320 kg/ha, preemergence) was 7.0. It also gave an MOOVA herbicidal rating ([3]; 0.0620 kg/ha, preemergence) of 9.0, an MOOVA herbicidal rating ([3]; 0.1250 kg/ha, preemergence) of 9.0 and an MOOVA herbicidal rating ([3]; 0.2500 kg/ha, preemergence) of 9.0. For the same compound, the CYPSE herbicidal rating ([4]; 0.0320 kg/ha, preemergence) was 0.0, the CYPSE herbicidal rating ([4]; 0.0620 kg/ha, preemergence) was 0.0 and the CYPSE herbicidal rating ([4]; 0.1250 kg/ha, preemergence) was 0.0. It also gave a CYPSE herbicidal rating ([4]; 0.2500 kg/ha, preemergence) of 0.0, an SAGPY herbicidal rating ([5]; 0.0320 kg/ha, preemergence) of 5.0 and an SAGPY herbicidal rating ([5]; 0.0620 kg/ha, preemergence) of 7.0. The SAGPY herbicidal rating ([5]; 0.1250 kg/ha, preemergence) was 7.0, the SAGPY herbicidal rating ([5]; 0.2500 kg/ha, preemergence) was 9.0 and the ECHORC herbicidal rating ([6]; 0.0320 kg/ha, preemergence) was 4.0. The ECHORC herbicidal rating ([6]; 0.0620 kg/ha, preemergence) was 6.0, the ECHORC herbicidal rating ([6]; 0.1250 kg/ha, preemergence) was 7.0 and the ECHORC herbicidal rating ([6]; 0.2500 kg/ha, preemergence) was 9.0.

With Cc1ccc(S(=O)(=O)NC(=O)c2nsc3ccc(-n4c(=O)cc(C(F)(F)F)n(C)c4=O)cc23)cc1 [Example 353, 1,2-Benzisothiazole-3-carboxamide, 5-[3,6-dihydro-3-methyl-2,6-dioxo-4-(trifluoromethyl)-1(2H)-pyrimidinyl]-N-(p-tolylsulfonyl)-] the “herbicidal effect rating ORYSAT” value ([1]; Rate 0.0320 kg/ha) was 2.5, the “herbicidal effect rating ORYSAT” value ([1]; Rate 0.0620 kg/ha) was 3.0 and the “herbicidal effect rating ORYSAT” value ([1]; Rate 0.1250 kg/ha) was 3.5. The “herbicidal effect rating ORYSAT” value ([1]; Rate 0.2500 kg/ha) was 4.0, the “herbicidal effect rating, CYPIR” value [2, 15] was 0.0 and the “herbicidal effect rating, CYPIR” value [2, 16] was 0.0. For the same compound, the “herbicidal effect rating, CYPIR” value [2, 17] was 1.0, the “herbicidal effect rating, CYPIR” value [2, 18] was 3.0 and the “herbicidal effect rating, MOOVA” value [3, 15] was 3.5. For the same compound, the “herbicidal effect rating, MOOVA” value [3, 16] was 6.5, the “herbicidal effect rating, MOOVA” value [3, 17] was 8.0 and the “herbicidal effect rating, MOOVA” value [3, 18] was 8.0. For the same compound, the “herbicidal effect rating, CYPSE” value [4, 15] was 0.0, the “herbicidal effect rating, CYPSE” value [4, 16] was 0.0 and the “herbicidal effect rating, CYPSE” value [4, 17] was 1.5. The “herbicidal effect rating, CYPSE” value [4, 18] was 2.5, the “herbicidal effect rating, SAGPY” value [5, 15] was 0.0 and the “herbicidal effect rating, SAGPY” value [5, 16] was 0.0. For the same compound, the “herbicidal effect rating, SAGPY” value [5, 17] was 0.0, the “herbicidal effect rating, SAGPY” value [5, 18] was 0.0 and the “herbicidal effect rating, ECHORC” value [6, 15] was 0.0. The “herbicidal effect rating, ECHORC” value [6, 16] was 2.0, the “herbicidal effect rating, ECHORC” value [6, 17] was 2.5 and the “herbicidal effect rating, ECHORC” value [6, 18] was 3.0.
